The values that follow come from patent US20180228801A1, “Method for Enhancing Learning Ability and Memory of Patients with Alzheimer's Disease using Mocetinostat” (National Taiwan Normal University, priority 2017, published 2018).

Structures are written as SMILES.

Assay [1] concerns primary hippocampus neurons. Briefly: Primary hippocampus neurons damaged by oligomeric Aβ25-35, immune-fluorescent staining (NeuN, MAP2). The assay is classed as cell-based, mouse (C57BL/6J). The conditions noted are these: 48 hours after 50 μM oligomeric Aβ25-35, vs group treated with Aβ25-35. As for the experimental part:
The method of culturing mouse primary hippocampus neurons follow from a modified method from the prior art (Seibenhener and Wooten, 2012), including: obtaining a 16-18 day old embryo from a C57BL/6J strain pregnant female mouse after euthanasia, obtaining hippocampus tissue of the embryo and digesting the tissue with 0.05% trypsin at 37° C. for 15 minutes, and seeding 3×10^4 cells per well in a 48-well plate coated with Poly-L-lysine (100 μg/mL); wherein the components of the medium includes: Neurobasal Medium® (Gibco™; ThermoFisher Scientific, USA) adding 2% of B-27® Additive (Gibco™; ThermoFisher), 0.5 mM of glutamine (Gibco™; ThermoFisher), 25 μM of glutamate (Sigma-Aldrich, USA), 20 unit/mL of penicillin/streptomycin solution (Gibco™; ThermoFisher Scientific, USA), 1 mM of 4-(2-hydroxyethyl)-1-piperazineethanesulfonic acid) (HEPES) (Sigma-Aldrich), and 1% of heat inactivated Donor Horse Serum (Gibco™; ThermoFisher). Primary hippocampus neurons are cultured in an incubator in an environment of 37° C. and 5% CO2.
In some embodiments, experiments should be performed when said cells are in an Alzheimer's disease state. […] Further, 50 μM of oligomeric Aβ25-35 are applied for 1 hour, and then a high dose (70 nM) and low dose (35 nm) of MGCD0103 is applied for 48 hours on day 9. Finally, the cells are collected for immune-fluorescent staining.
The collected cells are analyzed with immune-fluorescence staining. First, fixing the cells with 4% of paraformaldehyde (PFA) (Sigma-Aldrich) for 30 minutes; rinsing the cells three times with PBST with a time interval of 10 minutes so as to remove remaining PFA; blocking the cells with 10% fetal bovine serum (FBS) for 2 hours; adding NeuN (1:1000; Milipore, USA) and MAP2 (1:1000; Milipore, USA) primary antibodies and allowing reaction at 4° C. for 16 hours; then allowing reaction with secondary antibodies at 37° C. for 2 hours; finally, staining nucleus with […] (DAPI) (Sigma-Aldrich) and analyzing to obtain values such as numbers of neurons, lengths of synapses, and numbers of branches with a High Content Micro-Imaging Acquisition and Screening System and MetaXpress (purchased from Molecular Devices).

Assay [2] deals with mice with oligomeric Aβ25-35 injected into bilateral hippocampal CA1. Briefly: Open Field Test. The conditions noted are these: for time spent at the central area (anxiety): Aβ25-35 mice, vs Aβ25-35 alone. Type of assay: in vivo, mice (C57BL/6J). As for the experimental part:
(§1) Further, in some embodiments of the present invention, C57BL/6J strain male mice (12 week old) are used as a subject in need. After mice are allowed to adapt to the environment for 6 days, mice are anesthetized with Avertin (0.4 g/kg; purchased from Sigma). The mice are fixed on a stereotactic apparatus for operation, followed by injecting oligomeric Aβ25-35 (10 nM, 3 μL) into bilateral hippocampal CA1 (AP: […] relative to the bregma; ML: ±[…] relative to the midline; DV: […] relative to the skull) on day 7. MGCD0103 and equal volume of vehicle (saline) are intraperitoneal (i.p.) injected once a day from day 8, the day after said operation, for 29 days. On day 24, the Open Field Test is performed; on day 26, the EPM is performed; on day 28, the Y-maze is performed; on days 30 to 36, MWM is performed; and on day 37, mice are euthanized for pathological analysis.
In an embodiment, OFT is performed to said mice. The mice are placed in a central area of a white box (30 cm×30 cm×30 cm). Then, mice are allowed spontaneously walk for 10 minutes, and the time that mice spend at the central area (15 cm×15 cm×15 cm) in the first 5 minutes is recorded. Since mice tend to spend time at a peripheral area of an open field when anxious, observing the time spent in the central zone there by the mice will give an indication of the level of anxiety of the mice. In addition, counting the total distance that the mice have moved in the last 5 minutes may determine an index of spontaneous exercise ability of the mice. After finishing the test for each mouse, the box was wiped with 70% and 30% (v/v) of ethanol solution to remove remaining odor in order to avoid affecting other test results.

For assay [3] the test system is unchanged. Briefly: Y-Maze Activity Test. The assay is classed as in vivo, mice (C57BL/6J). Conditions: Aβ25-35 mice, high dose 0.5 mg/kg i.p. once a day. As for the experimental part: as §1, with “On day 24, the Open Field Test is performed; on day 26, the EPM is performed; on day 28, the Y-maze is performed; on days 30 to 36, MWM is performed; and on day 37, mice are euthanized for pathological analysis.” left out
Y-Maze Activity Test is a test that takes advantage of the characteristic that mice tend to explore an unfamiliar environment, so that the short-term spatial memory of mice can be measured by means of a Y-maze module arranged with three arms (35 cm×5 cm×20 cm) formed of white acrylic. The mice are placed in the middle of the three arms of the Y-Maze, and the mice are allowed to freely and spontaneously explore for 8 minutes, wherein one count is recorded when four limbs of the mice completely enter any one of the three arms. […]

In assay [4] the test system is acetylated alpha-tubulin. Briefly: Western blot, acetylated alpha-tubulin. The assay is classed as in vivo, mice (C57BL/6J). The conditions noted are these: chronic i.p. treatment, hippocampus. As for the experimental part: as §1
Background: Immunoblotting shows a protein as a band on a membrane.

Assay [5] concerns PSD95. Briefly: Western blot, PSD95. Type of assay: in vivo, mice (C57BL/6J). The conditions noted are these: hippocampus. Here is the method: as §1
The subject of assay [6] is inactivated GSK3β (pS9). Briefly: Western blot, inactivated GSK3β (pS9). The assay is classed as in vivo, mice (C57BL/6J). Conditions: Aβ25-35 mice, hippocampus. Here is the method: as §1
Assay [7] concerns Tau protein at Thr-205. Briefly: Western blot, Tau phosphorylation at Thr-205. The assay is classed as in vivo, mice (C57BL/6J). The conditions noted are these: Aβ25-35 mice, hippocampus. Here is the method:
as §1

Assay [8] concerns BACE1 (Aβ forming enzyme). Briefly: Western blot, BACE1. Type of assay: in vivo, mice (C57BL/6J). Conditions: Aβ25-35 mice, hippocampus. Here is the method: as §1
The subject of assay [9] is IDE (Aβ degrading enzyme). Briefly: Western blot, IDE. The assay is classed as in vivo, mice (C57BL/6J). The conditions noted are these: Aβ25-35 mice, hippocampus. As for the experimental part: as §1
The test system of assay [10] is NEP (Aβ degrading enzyme). Briefly: Western blot, NEP. The assay is classed as in vivo, mice (C57BL/6J). The conditions noted are these: hippocampus. As for the experimental part: as §1
Setting [11] is: high dose 0.5 mg/kg i.p. once a day.

`Nc1ccccc1NC(=O)c1ccc(CNc2nccc(-c3cccnc3)n2)cc1` [MGCD0103, N-(2-Aminophenyl)-4-[[(4-pyridin-3-ylpyrimidin-2-yl)amino]methyl] benzamide]: the lengths of neurites result in assay [1] (high dose (70 nM)) and in assay [1] (low dose (35 nM)) was “significantly improved” each time. Besides, the “numbers of neuron cells (NeuN+)” value in [1] (high dose (70 nM)) and in [1] (low dose (35 nM)) was “significantly improved” in each case. The “time spent at the central area (anxiety)” value in [2] (setting [11]) and in assay [2] (low dose 0.01 mg/kg i.p. once a day) was “significantly increase” throughout. For the same compound, the “total moving distance (spontaneous exercise ability)” value in assay [2] (setting [11]) was “does not influence”; in assay [2] (low dose 0.01 mg/kg i.p. once a day, vs group treated with saline), “reduced”. For the same compound, the “spontaneous alternation rate (short-term memory)” value in assay [3] is reported as “significantly increased”. In addition, the “acetylation level of alpha-tubulin” value in assay [4] is listed as “significantly improve”. Besides, the “expression of PSD95” value in assay [5] is “no significant difference”. For the same compound, the “expression of inactivated GSK3β (pS9)” value in [6] is given as “considerably increased”. Moreover, the “phosphorylation expression of Tau protein at Thr-205” value in assay [7] is listed as “decreased”. Besides, in assay [8], the “expression of BACE1” value was “does not show a significant difference”. Further, the “expression of IDE protein” value in assay [9] is recorded as “significantly increased”. The “expression of NEP” value in [10] is “do not have significant difference”.
